The values that follow are results of earlier work, collected in patent publication US20240216490A1, “Autoantigens Engineered to Suppress Autoimmune Response” (Osprey Biopharmaceuticals, Inc., priority 2022, published 2024).

This data set addresses T1, Siglec-2 (CD22) (Homo sapiens, UniProt P20273).
T1 sequence (P20273 20-847): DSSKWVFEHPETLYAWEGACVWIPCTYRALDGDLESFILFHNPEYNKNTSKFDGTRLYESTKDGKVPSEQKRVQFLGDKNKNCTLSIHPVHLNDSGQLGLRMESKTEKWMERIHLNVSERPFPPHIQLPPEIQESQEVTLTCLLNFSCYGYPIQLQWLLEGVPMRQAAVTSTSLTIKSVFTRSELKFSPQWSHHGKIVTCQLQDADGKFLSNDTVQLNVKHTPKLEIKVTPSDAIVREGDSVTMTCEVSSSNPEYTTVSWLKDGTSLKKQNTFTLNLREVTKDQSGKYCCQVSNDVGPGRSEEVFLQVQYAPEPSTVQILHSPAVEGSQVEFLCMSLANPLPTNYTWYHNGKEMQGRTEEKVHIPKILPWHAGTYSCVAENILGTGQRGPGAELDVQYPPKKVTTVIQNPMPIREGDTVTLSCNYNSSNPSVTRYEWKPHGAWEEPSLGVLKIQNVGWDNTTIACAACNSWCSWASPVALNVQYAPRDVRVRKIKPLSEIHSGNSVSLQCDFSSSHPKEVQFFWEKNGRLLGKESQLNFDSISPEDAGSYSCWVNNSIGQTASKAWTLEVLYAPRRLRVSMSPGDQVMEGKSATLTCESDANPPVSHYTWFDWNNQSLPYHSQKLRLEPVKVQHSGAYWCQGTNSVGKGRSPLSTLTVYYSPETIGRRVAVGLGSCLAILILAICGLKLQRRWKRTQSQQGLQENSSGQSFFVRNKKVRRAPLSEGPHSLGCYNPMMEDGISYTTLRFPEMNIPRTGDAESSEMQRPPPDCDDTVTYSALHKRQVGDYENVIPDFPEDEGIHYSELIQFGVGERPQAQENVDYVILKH
Conditions: value from cited reference; cited from earlier work.
One may read the IC50 as the concentration that gives 50% inhibition. As to `O=C(Cc1ccc(-c2ccc(O)cc2)cc1)NCC(O)C(O)C1OC(OCc2ccccc2)(C(=O)O)CC(O)C1NC(=O)CO` (centres unmarked), the IC50 was 100 nM. Turning to `CO[C@]1(C(=O)O)CC(O)[C@@H](NC(C)=O)C([C@H](O)[C@H](O)CNC(=O)c2ccc(-c3ccccc3)cc2)O1` (some centres unmarked), the IC50 was 4000 nM. As for `O=C(Cc1ccc(-c2ccc(O)cc2)cc1)NC[C@@H](O)C(O)C1O[C@@](OCc2cccc(Cl)c2Cl)(C(=O)O)CC(O)[C@H]1NS(=O)(=O)c1ccccc1[N+](=O)[O-]` (some centres unmarked), the 50% inhibitory concentration (IC50) was 60 nM. For `COc1ccc(OC2OC(COC3(C(=O)O)CC(O)C(NC(=O)CO)C(C(O)C(O)CNCc4ccc(-c5ccc(O)cc5)cc4)O3)C(O)C(O)C2O)cc1` (centres unmarked), the IC50 is 240 nM.

For the compound `COC1(C(=O)O)CC(NS(=O)(=O)c2ccc(C)cc2)C(NC(C)=O)C(C(O)C(O)CNC(=O)c2ccc(-c3ccccc3)cc2)O1` (centres unmarked), the IC50 was 150 nM.
